PubChem BioAssay AID256 (DTP/NCI, 2004)
Inconclusive results and toxic doses are left out. Rule for the calls: active = survival T/C of 150% or more; inactive = T/C below 125% in these data. Residues, ends and D or L forms follow the SMILES beside them.

Test system: CD2F1 mice, L1210 leukemia ip, survival T/C
Test: NCI In Vivo Anticancer Drug Screen. Data for tumor model L1210 Leukemia (intraperitoneal) in CD2F1 (CDF1) mice
Details: higher = longer survival
In short: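 Activity against a transplanted murine tumor was judged by comparing the compound group with a vehicle group. The outcome in the treated animals was divided by that in the controls.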

[1] = endpoint: mean survival time, dose: 50.0 mg/kg/injection, schedule: Q01DX009 (ip), vehicle: saline with Tween-80
[2] = endpoint: mean survival time, dose: 100.0 mg/kg/injection, schedule: Q01DX009 (ip), vehicle: saline with Tween-80
[3] = endpoint: mean survival time, dose: 200.0 mg/kg/injection, schedule: Q01DX009 (ip), vehicle: saline with Tween-80
[4] = endpoint: mean survival time, dose: 400.0 mg/kg/injection, schedule: Q01DX009 (ip), vehicle: saline with Tween-80
[5] = endpoint: mean survival time, dose: 100.0 mg/kg/injection, schedule: Q01DX001 (ip), vehicle: saline with Tween-80
[6] = endpoint: mean survival time, dose: 200.0 mg/kg/injection, schedule: Q01DX001 (ip), vehicle: saline with Tween-80
[7] = endpoint: mean survival time, dose: 1.56 mg/kg/injection, schedule: Q01DX009 (ip), vehicle: saline
[8] = endpoint: mean survival time, dose: 6.25 mg/kg/injection, schedule: Q04DX002 (ip), vehicle: saline
[9] = endpoint: mean survival time, dose: 12.5 mg/kg/injection, schedule: Q04DX002 (ip), vehicle: saline
[10] = endpoint: mean survival time, dose: 100.0 mg/kg/injection, schedule: Q04DX003 (ip), vehicle: saline with Tween-80
[11] = endpoint: mean survival time, dose: 200.0 mg/kg/injection, schedule: Q04DX003 (ip), vehicle: saline with Tween-80
[12] = endpoint: mean survival time, dose: 400.0 mg/kg/injection, schedule: Q04DX003 (ip), vehicle: saline with Tween-80
[13] = endpoint: mean survival time, dose: 50.0 mg/kg/injection, schedule: Q04DX002 (ip), vehicle: saline with Tween-80

Measured: T/C

C=CC(C)(C)c1ccccc1
inactive: [1] 93 % of control | [2] 96 % of control | [3] 98 % of control

C=C1C(=O)OC(CCCCCCCCCCCCC)C1C(=O)O (stereo not drawn)
inactive: endpoint: mean survival time, dose: 10.0 mg/kg/injection, schedule: Q04DX002 (ip), vehicle: saline with Tween-80 108 % of control | endpoint: mean survival time, dose: 20.0 mg/kg/injection, schedule: Q04DX002 (ip), vehicle: saline with Tween-80 87 % of control

O=C(CNC(=O)NCc1ccco1)NNC(=O)Nc1ccc(F)c(Cl)c1
inactive: [2] 93 % of control | [3] 88 % of control | [4] 96 % of control

CCOC(=O)c1cc(-c2ccc(Cl)cc2)nc2c1ccc1ccccc12
inactive: endpoint: mean survival time, dose: 100.0 mg/kg/injection, schedule: Q01DX001 (ip), vehicle: saline 100 % of control | endpoint: mean survival time, dose: 200.0 mg/kg/injection, schedule: Q01DX001 (ip), vehicle: saline 96 % of control | endpoint: mean survival time, dose: 400.0 mg/kg/injection, schedule: Q01DX001 (ip), vehicle: saline 108 % of control

CCOC(=O)Nc1cc(NCCCCc2ccccc2)c(N)c(N)n1
inactive: [5] 102 % of control | [6] 109 % of control

CC(=O)NC(CCC(=O)O)C(=O)O.[NH-]C1CCCCC1[NH-].[Pt+2] (stereo not drawn)
inactive: endpoint: median survival time, dose: 6.25 mg/kg/injection, schedule: Q04DX003 (ip), vehicle: saline 97 % of control | endpoint: median survival time, dose: 12.5 mg/kg/injection, schedule: Q04DX003 (ip), vehicle: saline 110 % of control | endpoint: median survival time, dose: 25.0 mg/kg/injection, schedule: Q04DX003 (ip), vehicle: saline 102 % of control | endpoint: median survival time, dose: 50.0 mg/kg/injection, schedule: Q04DX003 (ip), vehicle: saline 97 % of control | endpoint: median survival time, dose: 100.0 mg/kg/injection, schedule: Q04DX003 (ip), vehicle: saline 112 % of control

Cc1cccc(N=Cc2ccc3c(c2)OCO3)c1
inactive: endpoint: mean survival time, dose: 100.0 mg/kg/injection, schedule: Q04DX003 (ip), vehicle: Klucel (hydroxypropylcellulose) (HPC) 100 % of control | endpoint: mean survival time, dose: 200.0 mg/kg/injection, schedule: Q04DX003 (ip), vehicle: Klucel (hydroxypropylcellulose) (HPC) 111 % of control

C1CCC2[N-]CC3CCCCC3[N-]CC3CCCCC3[N-]CC3CCCCC3[N-]CC2C1.[Cu] (stereo not drawn)
inactive: endpoint: mean survival time, dose: 0.39 mg/kg/injection, schedule: Q01DX009 (ip), vehicle: saline 118 % of control | endpoint: mean survival time, dose: 0.78 mg/kg/injection, schedule: Q01DX009 (ip), vehicle: saline 116 % of control | [7] 104 % of control | endpoint: mean survival time, dose: 3.12 mg/kg/injection, schedule: Q01DX009 (ip), vehicle: saline 118 % of control | endpoint: mean survival time, dose: 6.25 mg/kg/injection, schedule: Q01DX009 (ip), vehicle: saline 119 % of control

[CH3][Pb]([CH3])([CH3])[Cl]
inactive: [7] 97 % of control | endpoint: mean survival time, dose: 1.56 mg/kg/injection, schedule: Q04DX002 (ip), vehicle: saline 101 % of control | endpoint: mean survival time, dose: 3.13 mg/kg/injection, schedule: Q01DX009 (ip), vehicle: saline 87 % of control | endpoint: mean survival time, dose: 3.13 mg/kg/injection, schedule: Q04DX002 (ip), vehicle: saline 108 % of control | [8] 92 % of control | [9] 93 % of control

C=CCOCC(COCC=C)OC1CCS(=O)(=O)C1 (stereo not drawn)
inactive: [1] 101 % of control | [2] 97 % of control | [3] 93 % of control

Nc1cc(N)c2[nH]cnc2n1
inactive: endpoint: mean survival time, dose: 100.0 mg/kg/injection, schedule: Q01DX001 (ip), vehicle: other 104 % of control | endpoint: mean survival time, dose: 200.0 mg/kg/injection, schedule: Q01DX001 (ip), vehicle: other 97 % of control | endpoint: mean survival time, dose: 400.0 mg/kg/injection, schedule: Q01DX001 (ip), vehicle: other 98 % of control

O=C(O)CCc1c[nH]c2ccccc12
inactive: [10] 98 % of control | [11] 102 % of control | [12] 108 % of control

OC1CCN(c2c3ccccc3nc3ccccc23)CC1
inactive: [9] 100 % of control | endpoint: mean survival time, dose: 25.0 mg/kg/injection, schedule: Q04DX002 (ip), vehicle: saline 100 % of control | endpoint: mean survival time, dose: 50.0 mg/kg/injection, schedule: Q04DX002 (ip), vehicle: saline 116 % of control

Cn1c(=O)[nH]c2nc(-c3ccccc3)[nH]c2c1=O
inactive: endpoint: mean survival time, dose: 12.5 mg/kg/injection, schedule: Q01DX005 (ip), vehicle: other 89 % of control | endpoint: mean survival time, dose: 25.0 mg/kg/injection, schedule: Q01DX005 (ip), vehicle: other 87 % of control | endpoint: mean survival time, dose: 50.0 mg/kg/injection, schedule: Q01DX005 (ip), vehicle: other 86 % of control | endpoint: mean survival time, dose: 100.0 mg/kg/injection, schedule: Q01DX005 (ip), vehicle: other 86 % of control | endpoint: mean survival time, dose: 200.0 mg/kg/injection, schedule: Q01DX005 (ip), vehicle: other 87 % of control

CCOc1cccc(Cc2cn(Cc3cccc(NC(=O)Nc4ccc(S(=O)(=O)F)cc4)c3)c(=O)[nH]c2=O)c1
inactive: [5] 86 % of control | [6] 92 % of control | endpoint: mean survival time, dose: 400.0 mg/kg/injection, schedule: Q01DX001 (ip), vehicle: saline with Tween-80 86 % of control

CC(C)C(C)/C=C/CC(C)C1CCC2C1(C)CCCC21C2CC3=C(CC(OC(=O)NC(N)=O)CC3)C21 (stereo not drawn)
inactive: [2] 95 % of control | [3] 104 % of control | [4] 87 % of control

CC(C)C(NC(=O)C(NC(=O)C(CCCN=C(N)N)NC(=O)C(N)CCCCN)C(C)C)C(N)=O (stereo not drawn) (H-KRVV-NH2; configuration not given here)
inactive: endpoint: mean survival time, dose: 25.0 mg/kg/injection, schedule: Q01DX009 (ip), vehicle: water 95 % of control | endpoint: mean survival time, dose: 50.0 mg/kg/injection, schedule: Q01DX009 (ip), vehicle: water 100 % of control | endpoint: mean survival time, dose: 100.0 mg/kg/injection, schedule: Q01DX009 (ip), vehicle: water 108 % of control | endpoint: mean survival time, dose: 200.0 mg/kg/injection, schedule: Q01DX009 (ip), vehicle: water 103 % of control

CCCC[P+](C)(CC[P+](C)(c1ccccc1)c1ccccc1)c1ccccc1 (stereo not drawn)
inactive: [8] 104 % of control | [9] 89 % of control

O=C1c2ccccc2C(=O)N1CCCCCCCCCCN1C(=O)c2ccccc2C1=O
inactive: [2] 92 % of control | [3] 89 % of control | [4] 93 % of control

COc1ccccc1N=Nc1c(O)n(-c2ccccc2OC)c(=S)n(-c2ccccc2OC)c1=O
inactive: [13] 98 % of control | [5] 93 % of control | endpoint: mean survival time, dose: 100.0 mg/kg/injection, schedule: Q04DX002 (ip), vehicle: saline with Tween-80 94 % of control | [6] 94 % of control | endpoint: mean survival time, dose: 200.0 mg/kg/injection, schedule: Q04DX002 (ip), vehicle: saline with Tween-80 102 % of control

O=C(O)c1ccccc1N=Cc1ccccc1O
inactive: [2] 96 % of control | [10] 103 % of control | [3] 96 % of control | [11] 113 % of control | [4] 102 % of control | [12] 105 % of control

O=C(N/N=C/c1cccc2ccccc12)C(O)c1ccccc1 (stereo not drawn)
inactive: [2] 104 % of control | [3] 101 % of control | [4] 98 % of control

Cn1cnc(C(=N)[Se])c1N
inactive: endpoint: mean survival time, dose: 0.78 mg/kg/injection, schedule: Q01DX005 (ip), vehicle: water 90 % of control | endpoint: mean survival time, dose: 1.56 mg/kg/injection, schedule: Q01DX005 (ip), vehicle: water 102 % of control | endpoint: mean survival time, dose: 3.13 mg/kg/injection, schedule: Q01DX005 (ip), vehicle: water 100 % of control | endpoint: mean survival time, dose: 6.25 mg/kg/injection, schedule: Q01DX005 (ip), vehicle: water 90 % of control | endpoint: mean survival time, dose: 12.5 mg/kg/injection, schedule: Q01DX005 (ip), vehicle: water 100 % of control

O=S(=O)(N/N=C/c1ccccc1)c1ccccc1
inactive: endpoint: mean survival time, dose: 12.5 mg/kg/injection, schedule: Q01DX009 (ip), vehicle: Klucel (hydroxypropylcellulose) (HPC) 97 % of control | endpoint: mean survival time, dose: 25.0 mg/kg/injection, schedule: Q01DX009 (ip), vehicle: Klucel (hydroxypropylcellulose) (HPC) 95 % of control | endpoint: mean survival time, dose: 50.0 mg/kg/injection, schedule: Q01DX009 (ip), vehicle: Klucel (hydroxypropylcellulose) (HPC) 90 % of control | endpoint: mean survival time, dose: 100.0 mg/kg/injection, schedule: Q01DX009 (ip), vehicle: Klucel (hydroxypropylcellulose) (HPC) 94 % of control | endpoint: mean survival time, dose: 200.0 mg/kg/injection, schedule: Q01DX009 (ip), vehicle: Klucel (hydroxypropylcellulose) (HPC) 92 % of control | endpoint: mean survival time, dose: 400.0 mg/kg/injection, schedule: Q01DX009 (ip), vehicle: Klucel (hydroxypropylcellulose) (HPC) 97 % of control

COc1ccccc1C(O)(c1ccccc1OC)c1c(OC)cccc1OC
inactive: [2] 97 % of control | [3] 93 % of control | [4] 88 % of control

NC(N)=N/N=C\c1ccc2ccccc2c1
inactive: endpoint: mean survival time, dose: 25.0 mg/kg/injection, schedule: Q04DX002 (ip), vehicle: saline with Tween-80 97 % of control | [13] 101 % of control
